Each block holds one molecule with its values, some of them ahead of it.
Experiments:
E3-STn cells = test: E3-STn transfected murine breast tumor allograft model, tumor volume; type: in vivo, mouse; conditions: 7G9-1A8 25 mg/kg ip twice weekly 3 weeks, Paclitaxel daily 5 days
Procedure: 3 test articles were evaluated during the study.
Standard deviation values are listed in parenthesis.

AcSTn-PAA ELISA = type: binding; conditions: 200 ng/well PAA antigen; 1:5 dilutions from 1 μM
Procedure: (§1) Anti-STn serum titer is determined using a murine anti-STn bovine submaxillary mucin (BSM) ELISA together with serum profiles observed by glycan microarray. 96-well plates are coated with 1 μg/well of BSM and incubated overnight at 4° C. O-acetylation of BSM antigen is removed by treating wells with 0.1 M sodium hydroxide. Specific binding to STn is determined by treatment of wells with sodium periodate. Periodate treatment destroys the C6 side chain of sialic acid; therefore antibodies raised against STn should not bind to periodate-treated wells. Wells are blocked with PBS 1% ovalbumin (OVA). Serum samples to be assayed are serially diluted in PBS 1% OVA. […] Detection of anti-STn antibodies present in serum is determined using an HRP-conjugated polyclonal goat anti-mouse IgG antibody (Jackson Immunoresearch, West Grove, Pa.). […] Optical densities are measured at 490 nm using a Spectramax microplate reader (Molecular Devices, Sunnyvale, Calif.). The serum titer is obtained by comparison of OD values with a cutoff value calculated as two standard deviations above the mean of optical density values of the negative control. […]
(§2) 18D2 and 18C7 antibodies were further characterized by ELISA comprising antigens other than BSM. […] Binding of anti-STn antibodies was detected using a goat anti-mouse IgG-HRP conjugated antibody (Jackson Immunoresearch Laboratories, West Grove, Pa.). […]

GcSTn-PAA ELISA = type: binding; conditions: 200 ng/well PAA antigen; 1:5 dilutions from 1 μM
Procedure: as §1, §2

[1] = Glycan array STn specificity and anti-STn antibody group; type: binding; parameters: key to Group: Group 1 antibodies according to the invention are antibodies capable of binding AcSTn and GcSTn; Antibodies were assigned to Group 2 based on their ability to bind STn as well as some related structures that include an O-linkage to serine or threonine; Group 3 antibodies are antibodies capable of binding STn, but may also bind a broader set of related structures; Group 4 antibodies are capable of binding to both AcSTn and GcSTn as well as the un-sialylated Tn antigen; conditions: assigned from flow cytometry and glycan array analysis
Procedure: Optimized glycan arrays comprise 71 chemically synthesized and well-defined glycans, most of which comprise Neu5Ac and Neu5Gc glycan pairs.
300 ml of epoxy blocking buffer is prepared by combining 15 ml of 2 M Tris buffer (pH 8) with 0.9 ml of 16.6 M ethanolamine and 284.1 ml of distilled water. The solution is filtered using a […] nitrocellulose membrane. The epoxy buffer solution as well as 1 L of distilled water are pre-warmed to 50° C. Glass slides are arranged in a slide holder and quickly submerged in a staining tub with the warmed epoxy blocking buffer. Slides are incubated in the epoxy blocking buffer for 1 hour at 50° C. with periodic shaking to deactivate epoxy binding sites. Next, slides are rinsed and blocked with PBS with 1% OVA at 25° C. for one hour. Serum samples are diluted 1:1000 in PBS with 1% OVA and added to the glycan array for one hour at 25° C. After extensive washing, binding of polyclonal serum antibodies are detected by incubating glycan microarray slides with Cy3-conjugated anti-mouse IgG (Jackson Immunoresearch, West Grove, Pa.) for one hour. Slides are then washed extensively, dried and scanned with a Genepix 4000B scanner (Laser at 100%; gain at 350; 10 μm pixels). Raw data from scanned images are extracted using the Genepix software and analysis of raw data is carried out.
Based on characterization data, anti-STn antibodies developed from Group 6 and Group 8 mice were categorized by anti-STn group number. In some cases, antibodies were assigned to Group 1. Group 1 antibodies according to the invention are antibodies capable of binding AcSTn and GcSTn. Such antibodies may have the ability to associate with a wider range of STn structures. The large oval in FIG. 1A indicates the portion of STn recognized by Group 1 antibodies. […] Also listed in the Table is the antibody Isotype for each antibody as determined by the IsoStrip mouse monoclonal antibody isotyping kit (Roche Diagnostics GmbH, Manheim, Germany).

[2] = system: STn on bovine submaxillary mucin (BSM); test: Anti-STn BSM ELISA; type: binding; conditions: BSM ELISA, sodium periodate treated wells
Procedure: Anti-STn serum titer is determined using a murine anti-STn bovine submaxillary mucin (BSM) ELISA together with serum profiles observed by glycan microarray. 96-well plates are coated with 1 μg/well of BSM and incubated overnight at 4° C. O-acetylation of BSM antigen is removed by treating wells with 0.1 M sodium hydroxide. Specific binding to STn is determined by treatment of wells with sodium periodate. Periodate treatment destroys the C6 side chain of sialic acid; therefore antibodies raised against STn should not bind to periodate-treated wells. Wells are blocked with PBS 1% ovalbumin (OVA). Serum samples to be assayed are serially diluted in PBS 1% OVA. A commercially available mouse anti-STn monoclonal antibody, 3F1 (SBH Sciences, Natick, Mass.) is used as a positive control. This antibody is also serially diluted in PBS with 1% OVA. A pool of serum from naïve wild type mice is used for the preparation of negative control samples. Detection of anti-STn antibodies present in serum is determined using an HRP-conjugated polyclonal goat anti-mouse IgG antibody (Jackson Immunoresearch, West Grove, Pa.). The reaction is stopped by addition of sulfuric acid (1.6 M). Optical densities are measured at 490 nm using a Spectramax microplate reader (Molecular Devices, Sunnyvale, Calif.). The serum titer is obtained by comparison of OD values with a cutoff value calculated as two standard deviations above the mean of optical density values of the negative control. […]
Binding affinities of 18D2 and 18C7 to STn were compared to commercially available anti-STn antibodies using the BSM ELISA assay described in Example 2. […] Antibody binding was determined using HRP-conjugated polyclonal goat anti-mouse IgG antibody (Jackson Immunoresearch Laboratories, West Grove, Pa.). […] Optical densities were measured at 490 nm using a Spectramax microplate reader. […] The half maximal effective concentration (EC50) for each antibody was calculated using a non-linear regression analysis carried out on periodate subtracted data.

Molecule: CC(=O)O[C@H]1C(=O)[C@@]2(C)[C@H]([C@H](OC(=O)c3ccccc3)[C@]3(O)C[C@H](OC(=O)[C@H](O)[C@@H](NC(=O)c4ccccc4)c4ccccc4)C(C)=C1C3(C)C)[C@]1(OC(C)=O)CO[C@@H]1C[C@@H]2O [Paclitaxel, reference compound]
Average Tumor Volume (E3-STn cells; day 1 of treatment): 112.7 mm^3
Average Tumor Volume (E3-STn cells; day 4 of treatment): 179.5 mm^3
Average Tumor Volume (E3-STn cells; day 6 of treatment): 191.4 mm^3
Average Tumor Volume (E3-STn cells; day 8 of treatment): 198.6 mm^3
Average Tumor Volume (E3-STn cells; day 11 of treatment): 199.8 mm^3
Average Tumor Volume (E3-STn cells; day 13 of treatment): 227.0 mm^3
Average Tumor Volume (E3-STn cells; day 15 of treatment): 248.4 mm^3
Average Tumor Volume (E3-STn cells; day 18 of treatment): 290.5 mm^3
Average Tumor Volume (E3-STn cells; day 20 of treatment): 328.2 mm^3
Average Tumor Volume (E3-STn cells; day 22): 331.8 mm^3
Average Tumor Volume (E3-STn cells; day 26): 344.0 mm^3
Average Tumor Volume (E3-STn cells; day 27): 350.1 mm^3
Average Tumor Volume (E3-STn cells; day 29): 352.3 mm^3
Average Tumor Volume (E3-STn cells; day 32): 355.1 mm^3
Average Tumor Volume (E3-STn cells; day 34): 358.4 mm^3
Average Tumor Volume (E3-STn cells; day 36): 282.0 mm^3
Average Tumor Volume (E3-STn cells; day 39): 267.2 mm^3
Average Tumor Volume (E3-STn cells; day 41): 276.4 mm^3

EC50 (AcSTn-PAA ELISA): 71.3 nM
EC50 (GcSTn-PAA ELISA): 27.8 nM
B1: B72.3: commercial anti-STn antibody, TAG-72 clone B72.3 (Thermo Fisher Scientific) (antibody, chains of the INN, looked up, V domains shown)
VH: QVQLQQSDAELVKPGASVKISCKASGYTFTDHAIHWAKQKPEQGLEWIGYISPGNDDIKYNEKFKGKATLTADKSSSTAYMQLNSLTSEDSAVYFCKRSYYGHWGQGTTLTVSS
VL: DIQMTQSPASLSVSVGETVTITCRASENIYSNLAWYQQKQGKSPQLLVYAATNLADGVPSRFSGSGSGTQYSLKINSLQSEDFGSYYCQHFWGTPYTFGGGTRLEIK

binding to periodate-treated wells [2]: did not bind
B2: 18C7: anti-STn monoclonal antibody from mouse #4436; IgG2c κ; SEQ ID NO 4 and 5 (antibody, V domains shown)
VH: QVTLKESGPGILQPSQTLSLTCSFSGFSLSTFGMGVGWIRQPSGKGLEWLAHIWWDDDKYYNPALKSRLTISKDTSKNQVFLKIANVDTADTATYYCARIAYYYGSERDYWGQGTTLTVSS
VL: QIVLTQSPAIMSASPGEKVTMTCSASSSISYMHWYHQKPGTSPKRWIYDTSKLASGVPARFSGSGSGTSYSLTISSMEAEDAATYYCHQRSSYTFGGGTKLEIKR
Group [1]: 1

From patent US20160264684A1, “GLYCAN-INTERACTING COMPOUNDS AND METHODS OF USE” (SIAMAB THERAPEUTICS, INC., priority 2013, published 2016)
